Results published in PubChem BioAssay AID2060486 (Molecular Pharmacology Branch, DTP, NCI, 2025).

Tested on: IGROV1 complex spheroids (HUVEC, MSC), viability % test/control
Assay: Anticancer human tumor IGROV1 cell line growth inhibition [GQUAD];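 also: spheroids exposed to compounds for 7 days before readout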;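 as to viability, T/C: 100% = DMSO vehicle control viability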
Settings: for IC50: curve of first compound; for viability, T/C: stronger effect = lower value
Method in brief: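 Multi-cell-type spheroids of tumor cells with HUVEC and mesenchymal stem cells, treated with drug combinations. Concentrations descend in half-log steps from near clinical Cmax, or from 10 microM where Cmax is unknown; viability read-out.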

[1] = second compound 0.0316 µM, first compound 0.0316 µM
[2] = second compound 0.0316 µM, first compound 0.1 µM
[3] = second compound 0.0316 µM, first compound 0.316 µM
[4] = second compound 0.0316 µM, first compound 1 µM
[5] = second compound 0.0316 µM, first compound 3.16 µM
[6] = second compound 0.0316 µM, first compound 10 µM
[7] = second compound 0.1 µM, first compound 0.0316 µM
[8] = second compound 0.1 µM, first compound 0.1 µM
[9] = second compound 0.1 µM, first compound 0.316 µM
[10] = second compound 0.1 µM, first compound 1 µM
[11] = second compound 0.1 µM, first compound 3.16 µM
[12] = second compound 0.1 µM, first compound 10 µM
[13] = second compound 0.316 µM, first compound 0.0316 µM
[14] = second compound 0.316 µM, first compound 0.1 µM
[15] = second compound 0.316 µM, first compound 0.316 µM
[16] = second compound 0.316 µM, first compound 1 µM
[17] = second compound 0.316 µM, first compound 3.16 µM
[18] = second compound 0.316 µM, first compound 10 µM
[19] = second compound 1 µM, first compound 0.0316 µM
[20] = second compound 1 µM, first compound 0.1 µM
[21] = second compound 1 µM, first compound 0.316 µM
[22] = second compound 1 µM, first compound 1 µM
[23] = second compound 1 µM, first compound 3.16 µM
[24] = second compound 1 µM, first compound 10 µM
[25] = second compound 3.16 µM, first compound 0.0316 µM
[26] = second compound 3.16 µM, first compound 0.1 µM
[27] = second compound 3.16 µM, first compound 0.316 µM
[28] = second compound 3.16 µM, first compound 1 µM
[29] = second compound 3.16 µM, first compound 3.16 µM
[30] = second compound 3.16 µM, first compound 10 µM
[31] = second compound 10 µM, first compound 0.0316 µM
[32] = second compound 10 µM, first compound 0.1 µM
[33] = second compound 10 µM, first compound 0.316 µM
[34] = second compound 10 µM, first compound 1 µM
[35] = second compound 10 µM, first compound 3.16 µM
[36] = second compound 10 µM, first compound 10 µM

SMILES: C=CCn1c(=O)c2cnc(Nc3ccc(N4CCN(C)CC4)cc3)nc2n1-c1cccc(C(C)(C)O)n1 + CN(C)c1ccc(Nc2c3ccc(NC(=O)CCN4CCCC4)cc3nc3cc(NC(=O)CCN4CCCC4)ccc23)cc1
- IC50 (second compound 0.0316 µM): 153 nM
- IC50 (second compound 0.1 µM): 145 nM
- IC50 (second compound 0.316 µM): 138 nM
- IC50 (second compound 1 µM): 136 nM
- IC50 (second compound 3.16 µM): 112 nM
- IC50 (second compound 10 µM): < 31.6 nM
- viability, T/C [1]: 92.4%
- viability, T/C [2]: 72.3%
- viability, T/C [3]: 12.3%
- viability, T/C [4]: 3.27%
- viability, T/C [5]: 3.29%
- viability, T/C [6]: 2.49%
- viability, T/C [7]: 90.8%
- viability, T/C [8]: 68.1%
- viability, T/C [9]: 12.1%
- viability, T/C [10]: 2.73%
- viability, T/C [11]: 2.54%
- viability, T/C [12]: 2.34%
- viability, T/C [13]: 76.4%
- viability, T/C [14]: 65.5%
- viability, T/C [15]: 10.3%
- viability, T/C [16]: 3.01%
- viability, T/C [17]: 2.63%
- viability, T/C [18]: 1.87%
- viability, T/C [19]: 61.6%
- viability, T/C [20]: 69.2%
- viability, T/C [21]: 8.29%
- viability, T/C [22]: 2.65%
- viability, T/C [23]: 2.66%
- viability, T/C [24]: 2.32%
- viability, T/C [25]: 67.7%
- viability, T/C [26]: 54.5%
- viability, T/C [27]: 7.41%
- viability, T/C [28]: 3.03%
- viability, T/C [29]: 2.47%
- viability, T/C [30]: 1.97%
- viability, T/C [31]: 37.6%
- viability, T/C [32]: 27.4%
- viability, T/C [33]: 5.31%
- viability, T/C [34]: 2.61%
- viability, T/C [35]: 1.87%
- viability, T/C [36]: 1.28%

SMILES: CCCS(=O)(=O)Nc1ccc(F)c(C(=O)c2c[nH]c3ncc(-c4ccc(Cl)cc4)cc23)c1F + Cc1cnc(CNC(=O)c2c(=O)c3ccc(N4CCCN(C)CC4)nc3n3c2sc2ccccc23)cn1
- IC50 (second compound 0.0316 µM): 1470 nM
- IC50 (second compound 0.1 µM): < 31.6 nM
- IC50 (second compound 0.316 µM): < 31.6 nM
- IC50 (second compound 1 µM): < 31.6 nM
- IC50 (second compound 3.16 µM): < 31.6 nM
- IC50 (second compound 10 µM): < 31.6 nM
- viability, T/C [1]: 77.1%
- viability, T/C [2]: 71.3%
- viability, T/C [3]: 50.1%
- viability, T/C [4]: 52.3%
- viability, T/C [5]: 51.9%
- viability, T/C [6]: 14.2%
- viability, T/C [7]: 44.5%
- viability, T/C [8]: 42.7%
- viability, T/C [9]: 41.1%
- viability, T/C [10]: 31.6%
- viability, T/C [11]: 37.9%
- viability, T/C [12]: 9.64%
- viability, T/C [13]: 21%
- viability, T/C [14]: 33.1%
- viability, T/C [15]: 25.4%
- viability, T/C [16]: 24.6%
- viability, T/C [17]: 14.4%
- viability, T/C [18]: 7.38%
- viability, T/C [19]: 15.1%
- viability, T/C [20]: 17.2%
- viability, T/C [21]: 11.9%
- viability, T/C [22]: 15.9%
- viability, T/C [23]: 14.6%
- viability, T/C [24]: 5.36%
- viability, T/C [25]: 9.19%
- viability, T/C [26]: 7.43%
- viability, T/C [27]: 10.5%
- viability, T/C [28]: 10.6%
- viability, T/C [29]: 9.32%
- viability, T/C [30]: 4.31%
- viability, T/C [31]: 10.1%
- viability, T/C [32]: 9.63%
- viability, T/C [33]: 8.82%
- viability, T/C [34]: 8.04%
- viability, T/C [35]: 6.37%
- viability, T/C [36]: 5.19%

SMILES: CC1COCCN1c1cc(C2(S(C)(=N)=O)CC2)nc(-c2ccnc3[nH]ccc23)n1 (stereo not drawn) + Cc1cnc(CNC(=O)c2c(=O)c3ccc(N4CCCN(C)CC4)nc3n3c2sc2ccccc23)cn1
- IC50 (second compound 0.0316 µM): 205 nM
- IC50 (second compound 0.1 µM): < 31.6 nM
- IC50 (second compound 0.316 µM): < 31.6 nM
- IC50 (second compound 1 µM): < 31.6 nM
- IC50 (second compound 3.16 µM): < 31.6 nM
- IC50 (second compound 10 µM): < 31.6 nM
- viability, T/C [1]: 71.7%
- viability, T/C [2]: 62.6%
- viability, T/C [3]: 43.3%
- viability, T/C [4]: 15.1%
- viability, T/C [5]: 31.4%
- viability, T/C [6]: 5.8%
- viability, T/C [7]: 35.4%
- viability, T/C [8]: 36%
- viability, T/C [9]: 16.5%
- viability, T/C [10]: 10.8%
- viability, T/C [11]: 12.8%
- viability, T/C [12]: 4.75%
- viability, T/C [13]: 26.8%
- viability, T/C [14]: 20.6%
- viability, T/C [15]: 13.7%
- viability, T/C [16]: 7.83%
- viability, T/C [17]: 13.6%
- viability, T/C [18]: 4.61%
- viability, T/C [19]: 13.3%
- viability, T/C [20]: 17.7%
- viability, T/C [21]: 13.3%
- viability, T/C [22]: 8.94%
- viability, T/C [23]: 11.2%
- viability, T/C [24]: 6.04%
- viability, T/C [25]: 11.9%
- viability, T/C [26]: 10.2%
- viability, T/C [27]: 10.9%
- viability, T/C [28]: 8.09%
- viability, T/C [29]: 10.3%
- viability, T/C [30]: 5.89%
- viability, T/C [31]: 9.84%
- viability, T/C [32]: 9.08%
- viability, T/C [33]: 9.32%
- viability, T/C [34]: 8.94%
- viability, T/C [35]: 9.55%
- viability, T/C [36]: 4.74%

SMILES: CC1COCCN1c1cc(C2(S(C)(=N)=O)CC2)nc(-c2ccnc3[nH]ccc23)n1 (stereo not drawn) + CN(C)c1ccc(Nc2c3ccc(NC(=O)CCN4CCCC4)cc3nc3cc(NC(=O)CCN4CCCC4)ccc23)cc1
- IC50 (second compound 0.0316 µM): 1020 nM
- IC50 (second compound 0.1 µM): 949 nM
- IC50 (second compound 0.316 µM): 979 nM
- IC50 (second compound 1 µM): 1020 nM
- IC50 (second compound 3.16 µM): 1030 nM
- IC50 (second compound 10 µM): 141 nM
- viability, T/C [1]: 83.5%
- viability, T/C [2]: 76.6%
- viability, T/C [3]: 86.7%
- viability, T/C [4]: 49.9%
- viability, T/C [5]: 16.1%
- viability, T/C [6]: 7.65%
- viability, T/C [7]: 99.2%
- viability, T/C [8]: 89.5%
- viability, T/C [9]: 76.3%
- viability, T/C [10]: 52.7%
- viability, T/C [11]: 14%
- viability, T/C [12]: 5.88%
- viability, T/C [13]: 83.7%
- viability, T/C [14]: 103%
- viability, T/C [15]: 76.8%
- viability, T/C [16]: 51.4%
- viability, T/C [17]: 13.7%
- viability, T/C [18]: 6.28%
- viability, T/C [19]: 72.4%
- viability, T/C [20]: 93%
- viability, T/C [21]: 69.8%
- viability, T/C [22]: 52.5%
- viability, T/C [23]: 12.1%
- viability, T/C [24]: 6.36%
- viability, T/C [25]: 65.5%
- viability, T/C [26]: 84%
- viability, T/C [27]: 79.7%
- viability, T/C [28]: 49.4%
- viability, T/C [29]: 16.5%
- viability, T/C [30]: 6.55%
- viability, T/C [31]: 60.6%
- viability, T/C [32]: 54.4%
- viability, T/C [33]: 40.4%
- viability, T/C [34]: 30.5%
- viability, T/C [35]: 15.2%
- viability, T/C [36]: 7.14%
